In ChEMBL document CHEMBL3885861, “Open TG-GATES”:

Species: Rattus norvegicus
Experiment: Open TG-GATES - Regimen: Single
Type: toxicity, organism-based, Sprague-Dawley
Set-up: regimen Single, gender Male, age 6 weeks
Conditions: in vivo, po, route gavage; for TP / gamma-GTP / ALP / AST / CRE / DBIL / IP / K / LDH / Na / RALB / TBIL / TC / TG / ALT: tissue Plasma; for Bas / Eos / Fbg / Hb / Lym / MCH / MCHC / MCV / Mono / Neu / PT / RBC / Ret / APTT / WBC / Ht: tissue Blood; for KIDNEY_L / KIDNEY_R / KIDNEY_TOTAL: tissue Kidney
[1] = 30 mg/kg, 3 h, dose level Middle
[2] = 30 mg/kg, 6 h, dose level Middle
[3] = 30 mg/kg, 9 h, dose level Middle
[4] = 30 mg/kg, 24 h, dose level Middle
[5] = 100 mg/kg, 3 h, dose level High
[6] = 100 mg/kg, 6 h, dose level High
[7] = 100 mg/kg, 9 h, dose level High
[8] = 100 mg/kg, 24 h, dose level High

Cc1cnc(NC(=O)C2=C(O)c3ccccc3S(=O)(=O)N2C)s1 [MELOXICAM]
TP (10 mg/kg, 24 h, dose level Low): 5.4 g/dL
gamma-GTP (10 mg/kg, 24 h, dose level Low): 1 IU/L
TERMINAL_BW [1]: 226 g
Bas [1]: 1%
Eos [1]: 0.8%
Fbg [1]: 212 mg/dL
Hb [1]: 13.3 g/dL
Lym [1]: 79.6%
MCH [1]: 21 pg
MCHC [1]: 33.5%
MCV [1]: 62.7 fL
Mono [1]: 2.4%
Neu [1]: 16.4%
PT [1]: 12 s
RBC [1]: 636.4 x10_4/ul
Ret [1]: 7%
KIDNEY_L [1]: 1 g
KIDNEY_R [1]: 1 g
KIDNEY_TOTAL [1]: 2.1 g
ALP [1]: 811 IU/L
AST [1]: 65.6 IU/L
CRE [1]: 0.4 mg/dL
DBIL [1]: 0.07 mg/dL
IP [1]: 8.4 mg/dL
K [1]: 4.1 meq/L
LDH [1]: 177.8 IU/L
Na [1]: 140.6 meq/L
RALB [1]: 3.2 g/dL
TBIL [1]: 0.1 mg/dL
TC [1]: 66 mg/dL
TG [1]: 66 mg/dL
TP [1]: 5.3 g/dL
gamma-GTP [1]: 0.8 IU/L
TERMINAL_BW [2]: 222.4 g
Bas [2]: 0.6%
Eos [2]: 0.8%
Fbg [2]: 221.6 mg/dL
Lym [2]: 73.6%
MCH [2]: 21.8 pg
MCHC [2]: 33.9%
MCV [2]: 64.3 fL
Mono [2]: 3.4%
Neu [2]: 21.4%
RBC [2]: 632.8 x10_4/ul
Ret [2]: 7.2%
KIDNEY_L [2]: 1 g
KIDNEY_R [2]: 0.9 g
KIDNEY_TOTAL [2]: 1.9 g
ALP [2]: 775.2 IU/L
ALT [2]: 36.2 IU/L
AST [2]: 68.6 IU/L
CRE [2]: 0.4 mg/dL
DBIL [2]: 0.062 mg/dL
IP [2]: 9.3 mg/dL
K [2]: 3.8 meq/L
LDH [2]: 163.2 IU/L
Na [2]: 141.2 meq/L
RALB [2]: 3.4 g/dL
TBIL [2]: 0.1 mg/dL
TC [2]: 70.4 mg/dL
TG [2]: 61.6 mg/dL
TP [2]: 5.5 g/dL
gamma-GTP [2]: 1 IU/L
TERMINAL_BW [3]: 222 g
APTT [3]: 17.1 s
Bas [3]: 0.4%
Eos [3]: 0.8%
Fbg [3]: 235 mg/dL
Hb [3]: 13.3 g/dL
Lym [3]: 72%
MCH [3]: 21.8 pg
MCHC [3]: 34.2%
MCV [3]: 63.8 fL
Mono [3]: 3.8%
Neu [3]: 22.2%
PT [3]: 12.5 s
RBC [3]: 612.6 x10_4/ul
Ret [3]: 7%
WBC [3]: 110.9 x10_2/uL
KIDNEY_L [3]: 1 g
KIDNEY_R [3]: 1 g
KIDNEY_TOTAL [3]: 2 g
ALP [3]: 861.8 IU/L
ALT [3]: 34 IU/L
AST [3]: 62.8 IU/L
CRE [3]: 0.4 mg/dL
DBIL [3]: 0.06 mg/dL
IP [3]: 9.6 mg/dL
K [3]: 4.1 meq/L
LDH [3]: 170.2 IU/L
Na [3]: 141.8 meq/L
RALB [3]: 3.2 g/dL
TBIL [3]: 0.1 mg/dL
TC [3]: 64 mg/dL
TG [3]: 44.4 mg/dL
TP [3]: 5.3 g/dL
gamma-GTP [3]: 1 IU/L
TERMINAL_BW [4]: 240.1 g
Bas [4]: 0.6%
Eos [4]: 0.8%
Fbg [4]: 243.4 mg/dL
Lym [4]: 68%
MCH [4]: 21.8 pg
MCHC [4]: 33.7%
MCV [4]: 64.6 fL
Mono [4]: 3.8%
Neu [4]: 26.4%
PT [4]: 11.6 s
RBC [4]: 609 x10_4/ul
Ret [4]: 6.8%
WBC [4]: 132.5 x10_2/uL
KIDNEY_L [4]: 1.1 g
KIDNEY_R [4]: 1.1 g
KIDNEY_TOTAL [4]: 2.1 g
ALT [4]: 38.4 IU/L
AST [4]: 69.6 IU/L
CRE [4]: 0.4 mg/dL
DBIL [4]: 0.098 mg/dL
IP [4]: 7.8 mg/dL
K [4]: 3.9 meq/L
LDH [4]: 207 IU/L
Na [4]: 142.8 meq/L
RALB [4]: 3.3 g/dL
TBIL [4]: 0.2 mg/dL
TC [4]: 72.2 mg/dL
TG [4]: 108 mg/dL
TP [4]: 5.4 g/dL
gamma-GTP [4]: 1 IU/L
TERMINAL_BW [5]: 226.7 g
Bas [5]: 1%
Eos [5]: 1.4%
Fbg [5]: 222.4 mg/dL
Lym [5]: 75.6%
MCH [5]: 21.7 pg
MCHC [5]: 34%
MCV [5]: 63.9 fL
Mono [5]: 3.6%
Neu [5]: 18.6%
PT [5]: 11.8 s
RBC [5]: 624.4 x10_4/ul
Ret [5]: 7.1%
WBC [5]: 99 x10_2/uL
KIDNEY_L [5]: 1 g
KIDNEY_R [5]: 1 g
KIDNEY_TOTAL [5]: 2 g
ALP [5]: 883 IU/L
ALT [5]: 37.2 IU/L
AST [5]: 68.2 IU/L
CRE [5]: 0.4 mg/dL
DBIL [5]: 0.078 mg/dL
IP [5]: 8.9 mg/dL
K [5]: 4 meq/L
LDH [5]: 187.4 IU/L
Na [5]: 140.6 meq/L
RALB [5]: 3.4 g/dL
TBIL [5]: 0.1 mg/dL
TC [5]: 74.2 mg/dL
TG [5]: 74.4 mg/dL
TP [5]: 5.4 g/dL
gamma-GTP [5]: 0.8 IU/L
TERMINAL_BW [6]: 223.6 g
Bas [6]: 0.4%
Eos [6]: 1%
Fbg [6]: 211.6 mg/dL
Hb [6]: 13.3 g/dL
Lym [6]: 73.4%
MCH [6]: 21.1 pg
MCHC [6]: 34%
MCV [6]: 61.9 fL
Mono [6]: 3.2%
Neu [6]: 22.4%
PT [6]: 12.1 s
RBC [6]: 631.4 x10_4/ul
Ret [6]: 6.7%
WBC [6]: 88.1 x10_2/uL
KIDNEY_L [6]: 1 g
KIDNEY_R [6]: 1 g
KIDNEY_TOTAL [6]: 2 g
ALP [6]: 723.4 IU/L
ALT [6]: 37.4 IU/L
AST [6]: 68 IU/L
CRE [6]: 0.3 mg/dL
DBIL [6]: 0.068 mg/dL
IP [6]: 9.5 mg/dL
K [6]: 4.1 meq/L
LDH [6]: 160.4 IU/L
Na [6]: 140.4 meq/L
RALB [6]: 3.3 g/dL
TBIL [6]: 0.1 mg/dL
TC [6]: 67.6 mg/dL
TG [6]: 43 mg/dL
TP [6]: 5.3 g/dL
gamma-GTP [6]: 1 IU/L
TERMINAL_BW [7]: 223.1 g
APTT [7]: 17.8 s
Bas [7]: 0.4%
Eos [7]: 1%
Fbg [7]: 222.6 mg/dL
Hb [7]: 13.3 g/dL
Ht [7]: 38.4%
Lym [7]: 65.6%
MCH [7]: 21.9 pg
MCHC [7]: 34.5%
MCV [7]: 63.6 fL
Mono [7]: 4%
Neu [7]: 28.8%
RBC [7]: 605 x10_4/ul
Ret [7]: 7.1%
KIDNEY_L [7]: 1 g
KIDNEY_R [7]: 1 g
KIDNEY_TOTAL [7]: 2 g
ALP [7]: 759 IU/L
ALT [7]: 27.4 IU/L
AST [7]: 61 IU/L
CRE [7]: 0.4 mg/dL
DBIL [7]: 0.06 mg/dL
IP [7]: 9.6 mg/dL
K [7]: 4.3 meq/L
LDH [7]: 166 IU/L
Na [7]: 141.4 meq/L
RALB [7]: 3.2 g/dL
TBIL [7]: 0.1 mg/dL
TC [7]: 62 mg/dL
TG [7]: 23.2 mg/dL
TP [7]: 5.3 g/dL
gamma-GTP [7]: 1 IU/L
TERMINAL_BW [8]: 227.5 g
Bas [8]: 0.2%
Eos [8]: 0.8%
Fbg [8]: 300.8 mg/dL
Hb [8]: 9.5 g/dL
Ht [8]: 28.5%
Lym [8]: 67.4%
MCH [8]: 20.9 pg
MCHC [8]: 33.2%
MCV [8]: 62.8 fL
Mono [8]: 2.8%
PT [8]: 11.8 s
RBC [8]: 453.8 x10_4/ul
Ret [8]: 8.4%
KIDNEY_L [8]: 1.1 g
KIDNEY_R [8]: 1.1 g
KIDNEY_TOTAL [8]: 2.1 g
ALP [8]: 504.8 IU/L
ALT [8]: 26.2 IU/L
AST [8]: 51.8 IU/L
CRE [8]: 0.4 mg/dL
DBIL [8]: 0.056 mg/dL
IP [8]: 9.8 mg/dL
K [8]: 4.3 meq/L
LDH [8]: 159.4 IU/L
Na [8]: 141.2 meq/L
RALB [8]: 2.2 g/dL
TBIL [8]: 0.1 mg/dL
TC [8]: 58.6 mg/dL
TG [8]: 69.2 mg/dL
TP [8]: 3.9 g/dL
gamma-GTP [8]: 1 IU/L
